Experimental data as given in patent publication US20080009418A1, “Selective Inhibitors” (Alchemia LTD., priority 2004, published 2008).

Columns and labels:
Human neurokinin (NK1) = molecular target: T1, Human neurokinin (NK1) (Homo sapiens, UniProt P25103); assay: Radioligand binding, human neurokinin NK1 membranes, filtration, [125I]-Substance P; settings: compound at 10 μM; [125I]-Substance P
T1 construct: purchased Perkin Elmer Biosignal
In short: (§1)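 Membranes from cloned human receptors were incubated with compound and radioligand for 1 hour at room temperature. Bound ligand was collected on 0.3% PEI-soaked filters, washed with cold 50 mM Tris-HCl pH 7.4, and counted by scintillation. Percent inhibition was computed against DMSO totals and reference-ligand nonspecific wells.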

Human Melanocortin (MC3) = molecular target: T2, Human Melanocortin (MC3) (Homo sapiens, UniProt P41968); assay: Radioligand binding, human melanocortin MC3 membranes, FlashPlate, [125I]-NDP-αMSH; settings: compound at 10 μM, [125I]-NDP-αMSH
T2 construct: purchased Perkin Elmer Biosignal
T2 sequence (P41968 whole entry): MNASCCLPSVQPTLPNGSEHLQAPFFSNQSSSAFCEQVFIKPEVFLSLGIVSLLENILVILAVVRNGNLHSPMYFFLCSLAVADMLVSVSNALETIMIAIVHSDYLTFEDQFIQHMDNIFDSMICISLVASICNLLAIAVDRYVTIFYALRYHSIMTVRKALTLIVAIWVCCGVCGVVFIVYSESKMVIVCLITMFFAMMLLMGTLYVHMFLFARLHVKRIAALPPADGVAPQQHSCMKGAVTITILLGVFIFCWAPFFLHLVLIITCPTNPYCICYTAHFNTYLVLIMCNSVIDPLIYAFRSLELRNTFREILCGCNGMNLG
In short: (§2)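 Cloned human receptor membranes were coated onto FlashPlate wells and incubated with radioligand and compound (added from a 0.5 mM DMSO daughter plate) for 1 hour at room temperature in the dark. Scintillation counting gave percent inhibition, with DMSO defining total and reference ligand defining non-specific binding.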

Human opioid (ORL1) = molecular target: T3, Human opioid (ORL1) (Homo sapiens, UniProt P41146); assay: Radioligand binding, human opioid ORL1 membranes, FlashPlate, [125I]-Nociceptin; settings: compound at 10 μM, [125I]-Nociceptin
T3 construct: purchased Perkin Elmer Biosignal
T3 sequence (P41146 whole entry): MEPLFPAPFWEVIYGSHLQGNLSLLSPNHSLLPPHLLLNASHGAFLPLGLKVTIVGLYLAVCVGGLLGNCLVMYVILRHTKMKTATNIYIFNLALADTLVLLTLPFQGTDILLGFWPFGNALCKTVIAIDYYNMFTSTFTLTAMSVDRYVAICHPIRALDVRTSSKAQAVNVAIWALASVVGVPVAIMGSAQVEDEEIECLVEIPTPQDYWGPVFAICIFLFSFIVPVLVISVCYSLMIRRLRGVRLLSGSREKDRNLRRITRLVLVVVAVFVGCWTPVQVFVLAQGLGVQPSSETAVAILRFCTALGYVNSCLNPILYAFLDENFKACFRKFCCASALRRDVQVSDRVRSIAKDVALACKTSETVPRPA
In short: as §2

[1] = molecular target: T4, Human melanin-concentrating hormone (MCH1) (Homo sapiens, UniProt Q99705); assay: Radioligand binding, human melanin-concentrating hormone MCH1 membranes, FlashPlate, [125I]-S36057; settings: compound at 10 μM; [125I]-S36057
T4 construct: purchased Perkin Elmer Biosignal
T4 sequence (Q99705 whole entry): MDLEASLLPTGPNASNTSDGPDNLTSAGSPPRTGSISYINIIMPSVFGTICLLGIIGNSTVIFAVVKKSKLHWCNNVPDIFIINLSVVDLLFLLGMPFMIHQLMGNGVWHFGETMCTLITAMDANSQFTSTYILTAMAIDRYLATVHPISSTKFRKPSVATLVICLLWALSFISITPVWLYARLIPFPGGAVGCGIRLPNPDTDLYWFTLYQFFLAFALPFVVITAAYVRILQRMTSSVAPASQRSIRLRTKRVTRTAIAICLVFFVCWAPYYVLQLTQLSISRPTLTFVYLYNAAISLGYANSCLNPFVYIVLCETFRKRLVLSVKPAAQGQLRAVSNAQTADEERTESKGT
In short: as §2

Mouse urotensin (mUR2) = molecular target: T5, Mouse urotensin (mUR2) (Mus musculus, UniProt Q8VIH9); assay: Radioligand binding, mouse urotensin mUR2 membranes, FlashPlate, [125I]-Urotensin II; settings: compound at 10 μM; [125I]-Urotensin II
T5 construct: purchased Perkin Elmer Biosignal
T5 sequence (Q8VIH9 1-385): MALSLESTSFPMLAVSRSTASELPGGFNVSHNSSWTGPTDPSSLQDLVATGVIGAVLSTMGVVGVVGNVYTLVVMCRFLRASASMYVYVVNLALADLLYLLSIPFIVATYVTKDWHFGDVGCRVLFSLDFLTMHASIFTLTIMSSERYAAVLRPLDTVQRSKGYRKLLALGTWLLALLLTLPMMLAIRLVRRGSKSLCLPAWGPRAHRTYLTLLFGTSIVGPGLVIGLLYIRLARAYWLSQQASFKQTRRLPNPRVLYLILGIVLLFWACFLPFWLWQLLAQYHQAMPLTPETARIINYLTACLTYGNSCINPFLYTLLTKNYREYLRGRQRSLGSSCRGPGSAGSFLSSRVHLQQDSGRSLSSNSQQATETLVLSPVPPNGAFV
In short: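 Cloned mouse urotensin (mUR2) receptor membranes from Perkin Elmer Biosignal were immobilized in FlashPlate microplates using a proprietary coating. Each well got 19.5 μl buffer, then 0.5 μl of DMSO, reference ligand, or compound. Adding 5 μl of [125I]-Urotensin II, diluted to 5× final concentration in binding buffer, started binding. Plates were sealed with TopSeal-A and incubated 1 hour at room temperature in the dark. Wells were counted for 30 seconds each on a TopCount after a 60-second delay, and percentage inhibition was calculated.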

Human δ-opioid (DOP) = molecular target: T6, Human δ-opioid (DOP) (Homo sapiens, UniProt P41143); assay: Radioligand binding, human δ-opioid (DOP) membranes, FlashPlate, [3H]-Bremazocine; settings: compound at 10 μM; [3H]-Bremazocine
T6 construct: purchased Perkin Elmer Biosignal
T6 sequence (P41143 whole entry): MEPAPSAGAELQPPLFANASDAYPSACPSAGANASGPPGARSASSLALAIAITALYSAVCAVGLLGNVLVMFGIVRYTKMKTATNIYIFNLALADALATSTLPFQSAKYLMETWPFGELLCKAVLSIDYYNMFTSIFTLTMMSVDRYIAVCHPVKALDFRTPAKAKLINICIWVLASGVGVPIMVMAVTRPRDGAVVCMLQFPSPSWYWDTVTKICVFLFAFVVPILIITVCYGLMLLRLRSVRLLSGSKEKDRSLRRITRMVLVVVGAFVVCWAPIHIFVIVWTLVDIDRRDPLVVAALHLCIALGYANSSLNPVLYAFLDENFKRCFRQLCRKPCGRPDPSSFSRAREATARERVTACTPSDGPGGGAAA
In short: as §2

Human μ-opioid (MOP) = molecular target: T7, Human μ-opioid (MOP) (Homo sapiens, UniProt P35372); assay: Radioligand binding, human μ-opioid (MOP) membranes, FlashPlate, [3H]-Naloxone; settings: compound at 10 μM, [3H]-Naloxone
T7 construct: purchased Perkin Elmer Biosignal
T7 sequence (P35372 whole entry): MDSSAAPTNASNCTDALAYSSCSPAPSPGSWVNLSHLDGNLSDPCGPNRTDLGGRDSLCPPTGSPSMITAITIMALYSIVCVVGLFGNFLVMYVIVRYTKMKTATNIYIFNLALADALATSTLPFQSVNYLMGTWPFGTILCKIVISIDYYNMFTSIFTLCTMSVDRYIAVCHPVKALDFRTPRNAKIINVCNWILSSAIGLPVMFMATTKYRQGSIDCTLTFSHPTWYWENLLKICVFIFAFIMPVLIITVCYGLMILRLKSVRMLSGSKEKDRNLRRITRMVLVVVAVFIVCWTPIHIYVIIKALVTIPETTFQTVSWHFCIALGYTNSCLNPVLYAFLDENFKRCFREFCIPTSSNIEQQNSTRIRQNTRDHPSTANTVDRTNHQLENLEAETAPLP
In short: as §2

Human melanocortin (MC5) = molecular target: T8, Human melanocortin (MC5) (Homo sapiens, UniProt P33032); assay: Radioligand binding, human melanocortin MC5 membranes, FlashPlate, [125I]-NDP-αMSH; settings: compound at 10 μM; [125I]-NDP-αMSH
T8 construct: purchased Perkin Elmer Biosignal
T8 sequence (P33032 whole entry): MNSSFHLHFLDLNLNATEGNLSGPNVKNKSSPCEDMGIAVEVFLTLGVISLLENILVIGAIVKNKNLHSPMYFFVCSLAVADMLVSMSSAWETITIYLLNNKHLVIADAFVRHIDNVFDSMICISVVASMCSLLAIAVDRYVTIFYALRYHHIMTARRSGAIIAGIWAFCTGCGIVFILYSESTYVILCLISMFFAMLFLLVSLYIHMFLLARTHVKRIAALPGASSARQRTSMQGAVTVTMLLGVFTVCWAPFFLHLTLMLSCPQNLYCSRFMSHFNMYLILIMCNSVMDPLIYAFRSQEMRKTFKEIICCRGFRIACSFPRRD
In short: as §2

Human κ-Opioid (KOP) = molecular target: T9, Human κ-Opioid (KOP) (Homo sapiens, UniProt P41145); assay: Radioligand binding, human κ-opioid (KOP) membranes, filtration, [3H]-Diprenorphine; settings: compound at 10 μM, [3H]-Diprenorphine
T9 construct: purchased Perkin Elmer Biosignal
T9 sequence (P41145 whole entry): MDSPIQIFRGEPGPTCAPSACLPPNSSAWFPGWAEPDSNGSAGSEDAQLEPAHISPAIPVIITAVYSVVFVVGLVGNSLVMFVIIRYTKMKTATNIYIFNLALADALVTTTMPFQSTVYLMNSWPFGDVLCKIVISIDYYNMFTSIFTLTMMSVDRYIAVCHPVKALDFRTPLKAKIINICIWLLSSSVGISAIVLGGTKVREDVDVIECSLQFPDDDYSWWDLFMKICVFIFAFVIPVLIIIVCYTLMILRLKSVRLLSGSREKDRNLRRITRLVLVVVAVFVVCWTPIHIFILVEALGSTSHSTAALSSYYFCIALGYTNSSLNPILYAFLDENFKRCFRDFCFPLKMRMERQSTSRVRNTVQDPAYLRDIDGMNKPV
In short: as §1

Human Melanocortin (MC4) = molecular target: T10, Human Melanocortin (MC4) (Homo sapiens, UniProt P32245); assay: Radioligand binding, human melanocortin MC4 membranes, FlashPlate, [125I]-NDP-αMSH; settings: compound at 10 μM; [125I]-NDP-αMSH
T10 construct: purchased Perkin Elmer Biosignal
T10 sequence (P32245 whole entry): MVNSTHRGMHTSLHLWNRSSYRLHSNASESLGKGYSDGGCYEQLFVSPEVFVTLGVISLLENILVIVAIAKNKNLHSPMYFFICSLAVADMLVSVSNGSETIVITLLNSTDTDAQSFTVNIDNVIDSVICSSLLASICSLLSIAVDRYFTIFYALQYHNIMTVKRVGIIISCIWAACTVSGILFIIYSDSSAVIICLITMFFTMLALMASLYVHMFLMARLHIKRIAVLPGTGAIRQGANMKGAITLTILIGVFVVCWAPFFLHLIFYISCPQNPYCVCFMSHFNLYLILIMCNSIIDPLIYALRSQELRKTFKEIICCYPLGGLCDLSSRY
In short: as §2

[2] = molecular target: T11, Human neuropeptide Y (NPY-Y1) (Homo sapiens, UniProt P25929); assay: Radioligand binding, human neuropeptide Y NPY-Y1 membranes, FlashPlate, [125I]-PYY; settings: compound at 10 μM; [125I]-PYY
T11 construct: purchased Perkin Elmer Biosignal
T11 sequence (P25929 1-384): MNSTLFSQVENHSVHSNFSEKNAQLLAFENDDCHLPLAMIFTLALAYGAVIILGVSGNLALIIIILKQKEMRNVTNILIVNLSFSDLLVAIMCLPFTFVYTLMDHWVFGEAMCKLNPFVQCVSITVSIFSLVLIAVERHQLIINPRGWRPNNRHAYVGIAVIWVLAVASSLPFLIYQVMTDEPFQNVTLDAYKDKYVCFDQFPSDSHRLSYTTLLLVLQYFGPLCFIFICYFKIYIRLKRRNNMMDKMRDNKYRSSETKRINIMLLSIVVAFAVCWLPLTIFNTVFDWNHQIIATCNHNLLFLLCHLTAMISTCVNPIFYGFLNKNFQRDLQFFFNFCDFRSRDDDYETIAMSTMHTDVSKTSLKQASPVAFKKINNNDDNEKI
In short: as §2

T1 sequence (P25103 whole entry): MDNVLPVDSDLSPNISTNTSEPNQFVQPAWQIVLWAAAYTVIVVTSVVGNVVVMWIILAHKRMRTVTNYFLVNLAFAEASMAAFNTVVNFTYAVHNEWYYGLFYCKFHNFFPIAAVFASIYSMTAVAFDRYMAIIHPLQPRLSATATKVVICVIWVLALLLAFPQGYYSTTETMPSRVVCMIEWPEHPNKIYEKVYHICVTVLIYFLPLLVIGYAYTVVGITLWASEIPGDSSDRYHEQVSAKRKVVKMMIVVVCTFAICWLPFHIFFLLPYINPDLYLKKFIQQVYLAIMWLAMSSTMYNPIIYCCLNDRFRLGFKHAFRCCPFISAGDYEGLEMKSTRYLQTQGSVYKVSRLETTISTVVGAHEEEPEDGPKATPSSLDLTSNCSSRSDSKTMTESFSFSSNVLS

Row | SMILES | A8: inhibition of radioligand binding, human neurokinin (NK1) (Human neurokinin (NK1)) | A3: inhibition of radioligand binding, human melanocortin (MC3) (Human Melanocortin (MC3)) | A10: inhibition of radioligand binding, human opioid (ORL1) (Human opioid (ORL1); 10 µM) | A6: inhibition of radioligand binding, human melanin-concentrating hormone (MCH1) [1] | A11: inhibition of radioligand binding, mouse urotensin (mUR2) (Mouse urotensin (mUR2)) | A1: inhibition of radioligand binding, human δ-opioid (DOP) (Human δ-opioid (DOP)) | A7: inhibition of radioligand binding, human μ-opioid (MOP) (Human μ-opioid (MOP); 10 µM) | A5: inhibition of radioligand binding, human melanocortin (MC5) (Human melanocortin (MC5)) | A2: inhibition of radioligand binding, human κ-opioid (KOP) (Human κ-Opioid (KOP)) | A4: inhibition of radioligand binding, human melanocortin (MC4) (Human Melanocortin (MC4)) | A9: inhibition of radioligand binding, human neuropeptide Y (NPY-Y1) [2] | A3: inhibition of radioligand binding, human melanocortin (MC3) (Human Melanocortin (MC3); 10 µM) | A10: inhibition of radioligand binding, human opioid (ORL1) (Human opioid (ORL1)) | A7: inhibition of radioligand binding, human μ-opioid (MOP) (Human μ-opioid (MOP)) | A2: inhibition of radioligand binding, human κ-opioid (KOP) (Human κ-Opioid (KOP); 10 µM)
1 | NCCCC(=O)NC1C(OCc2ccc(Cl)cc2)OC(COCc2ccc(Cl)cc2)C(O)C1OCc1ccccc1 (single isomer, unassigned) [compound 506] | + (“+” indicates greater than 50% inhibition at 10 μM) | − (“−” indicates less than 50% inhibition at 10 μM) | + (“+” indicates greater than 50% inhibition at 10 μM) | − (“−” indicates less than 50% inhibition at 10 μM) | − (“−” indicates less than 50% inhibition at 10 μM) | − (“−” indicates less than 50% inhibition at 10 μM) | − (“−” indicates less than 50% inhibition at 10 μM) | + (“+” indicates greater than 50% inhibition at 10 μM) | − (“−” indicates less than 50% inhibition at 10 μM) | − (“−” indicates less than 50% inhibition at 10 μM) | − (“−” indicates less than 50% inhibition at 10 μM) | – | – | – | –
2 | N=C(N)NCC(=O)NC1C(OCc2ccc(Cl)cc2)OC(COCc2ccc3ccccc3c2)C(O)C1OCc1ccc(Cl)cc1 (single isomer, unassigned) [compound 507] | + (“+” indicates greater than 50% inhibition at 10 μM) | – | – | + (“+” indicates greater than 50% inhibition at 10 μM) | − (“−” indicates less than 50% inhibition at 10 μM) | − (“−” indicates less than 50% inhibition at 10 μM) | – | + (“+” indicates greater than 50% inhibition at 10 μM) | – | + (“+” indicates greater than 50% inhibition at 10 μM) | − (“−” indicates less than 50% inhibition at 10 μM) | − (“−” indicates less than 50% inhibition at 10 μM) | + (“+” indicates greater than 50% inhibition at 10 μM) | − (“−” indicates less than 50% inhibition at 10 μM) | − (“−” indicates less than 50% inhibition at 10 μM)
3 | N=C(N)NCC(=O)NC1C(OCc2ccc(Cl)cc2)OC(COCc2ccc3ccccc3c2)C(O)C1OCc1ccc(Cl)cc1 (single isomer, unassigned) [compound 508] | + (“+” indicates greater than 50% inhibition at 10 μM) | – | – | + (“+” indicates greater than 50% inhibition at 10 μM) | − (“−” indicates less than 50% inhibition at 10 μM) | − (“−” indicates less than 50% inhibition at 10 μM) | – | + (“+” indicates greater than 50% inhibition at 10 μM) | – | + (“+” indicates greater than 50% inhibition at 10 μM) | − (“−” indicates less than 50% inhibition at 10 μM) | + (“+” indicates greater than 50% inhibition at 10 μM) | + (“+” indicates greater than 50% inhibition at 10 μM) | − (“−” indicates less than 50% inhibition at 10 μM) | + (“+” indicates greater than 50% inhibition at 10 μM)
4 | N=C(N)NCC(=O)NC1C(OCc2ccc(Cl)cc2)OC(COCc2ccccc2)C(O)C1OCc1ccc(Cl)cc1 (single isomer, unassigned) [compound 509] | + (“+” indicates greater than 50% inhibition at 10 μM) | – | − (“−” indicates less than 50% inhibition at 10 μM) | + (“+” indicates greater than 50% inhibition at 10 μM) | − (“−” indicates less than 50% inhibition at 10 μM) | − (“−” indicates less than 50% inhibition at 10 μM) | + (“+” indicates greater than 50% inhibition at 10 μM) | + (“+” indicates greater than 50% inhibition at 10 μM) | − (“−” indicates less than 50% inhibition at 10 μM) | + (“+” indicates greater than 50% inhibition at 10 μM) | − (“−” indicates less than 50% inhibition at 10 μM) | − (“−” indicates less than 50% inhibition at 10 μM) | – | – | –
5 | N=C(N)NCC(=O)NC1C(OCc2ccc(Cl)cc2)OC(COCc2ccccc2)C(O)C1OCc1ccc(Cl)cc1 (single isomer, unassigned) [compound 510] | + (“+” indicates greater than 50% inhibition at 10 μM) | – | + (“+” indicates greater than 50% inhibition at 10 μM) | + (“+” indicates greater than 50% inhibition at 10 μM) | − (“−” indicates less than 50% inhibition at 10 μM) | − (“−” indicates less than 50% inhibition at 10 μM) | − (“−” indicates less than 50% inhibition at 10 μM) | + (“+” indicates greater than 50% inhibition at 10 μM) | − (“−” indicates less than 50% inhibition at 10 μM) | + (“+” indicates greater than 50% inhibition at 10 μM) | − (“−” indicates less than 50% inhibition at 10 μM) | + (“+” indicates greater than 50% inhibition at 10 μM) | – | – | –
